In patent publication US20210077491A1, “PHARMACEUTICAL COMPOSITION” (Kowa Company, Ltd., priority 2017, published 2021):

Experiments:
Format in all cases: in vivo, mouse
[1] = test system: pulmonary fibrosis model mice (intratracheal bleomycin); test: Amount of hydroxyproline in the lungs of bleomycin-induced pulmonary fibrosis model mice, preventive dosing (Example 1); conditions: preventive: oral from the day after bleomycin exposure, FIG. 2; for hydroxyproline in the lung as compared to the control group: compound A 50 mg/kg/day, losartan 50 mg/kg/day, lungs at day 21, Dunnett test
Description: (§1) 6-week-old male ICR mice (Japan SLC, Inc.) were exposed to bleomycin (Nippon Kayaku Co., Ltd.) (1.5 mg/kg) dissolved in physiological saline in the trachea to prepare pulmonary fibrosis model mice.
(§2) Investigation was conducted in mice not exposed to bleomycin (exposed to physiological saline in the trachea) in the normal group (6 mice), and pulmonary fibrosis model mice exposed to bleomycin in the trachea divided into 4 groups (control, compound A 50 mg/kg/day, losartan 50 mg/kg/day, and pirfenidone 400 mg/kg/day; 10 mice in each group). From the day after exposure to bleomycin, a 0.5% aqueous solution of methylcellulose was orally administered (administered twice a day) to the normal group and the control group, the sample solution of compound A prepared above was orally administered (administered once a day) to the compound A administration group, the sample solution of losartan prepared above was orally administered (administered once a day) to the losartan administration group, and the sample solution of pirfenidone prepared above was orally administered (administered twice a day) to the pirfenidone administration group, respectively. Twenty-one days after the bleomycin exposure, the mice were anesthetized and whole lung tissues were extracted.
The lung tissue extracted from the mouse was homogenized in a PBS solution, then mixed with an equal volume of 12N hydrochloric acid in a tube, and incubated at 110° C. for 20 to 24 hours. After the incubation, the solution was volatilized by opening the tube and continuing the incubation. […] 10 μL of the sample was added with 100 μL of chloramine T solution (1.4% chloramine T, 10% n-propanol, 80% citrate acetate buffer) and incubated at room temperature for 20 minutes, then added with 100 μL of Ehrlich's reagent (1 M p-dimethylamino benzaldehyde, 20% perchloric acid, 50% n-propanol) and incubated at 65° C. for 15 minutes, and the absorbance at 550 nm was measured to quantify the amount of hydroxyproline.

[2] = test system: pulmonary fibrosis model mice (intratracheal bleomycin); test: Amount of hydroxyproline in the lungs of bleomycin-induced pulmonary fibrosis model mice, therapeutic dosing (Example 2); conditions: therapeutic: oral from the 7th day after bleomycin exposure; compound A 50 mg/kg/day, losartan 50 mg/kg/day, pirfenidone 400 mg/kg/day; lungs at day 21; Dunnett test; FIG. 3
Description: Model mice were prepared in the same manner as in Example 1.
as §2, with “From the 7th day after” for “From the day after”
The amount of hydroxyproline in the mice was measured by the same method as in Example 1.

[3] = test system: pulmonary fibrosis model mice (intratracheal bleomycin); test: Lung weight in bleomycin-induced pulmonary fibrosis model mice, preventive dosing (Example 1); conditions: male ICR mice, bleomycin 1.5 mg/kg intratracheal, lungs at day 21, FIG. 1; for lung weight as compared to the normal group: oral from the day after exposure, compound A 50 mg/kg/day, losartan 50 mg/kg/day, pirfenidone 400 mg/kg/day
Description: as §1, §2
After washing the lung tissue extracted from the mouse with physiological saline, water was removed with a filter paper, and the wet weight was measured.

SMILES | hydroxyproline in the lung as compared to the control group [1] | hydroxyproline in the lung as compared to the control group [2] | lung weight as compared to the normal group [3] | decrease in hydroxyproline in the lung relative to the losartan administration group ([1]; compound A 50 mg/kg/day vs losartan 50 mg/kg/day, day 21) | lung weight as compared with the control group ([3]; oral 50 mg/kg/day once a day from the day after exposure, Dunnett test p<0.05)
CCCCc1nc(Cl)c(CO)n1Cc1ccc(-c2ccccc2-c2nn[nH]n2)cc1 [losartan] | significant decrease in hydroxyproline in the lung | no significant difference | significant increase in lung weight |  | 
CCCc1nc(C(C)C)n(-c2ncc(OCC)cn2)c(=O)c1Cc1ccc(-c2ccccc2-c2noc(=O)[nH]2)nc1 [compound A, 3-[2-(5-{[1-(5-ethoxypyrimidin-2-yl)-2-isopropyl-6-oxo-4-propyl-1,6-dihydropyrimidin-5-yl]methyl}pyridin-2-yl)phenyl]-1,2,4-oxadiazol-5(4H)-one] | significant decrease in hydroxyproline in the lung | significant decrease in hydroxyproline in the lung | no significant increase in lung weight | larger decrease than the losartan administration group | significant decrease in lung weight
Cc1ccc(=O)n(-c2ccccc2)c1 [pirfenidone] |  | no significant difference | significant increase in lung weight |  | 
